# Experimental data: patent US7998978B2 (Pfizer Inc., priority 2006, dated 2011)
# Target: T1, JNK1α1 (Homo sapiens, UniProt P45983)
# T1 construct: catalytic domain containing amino acids 1-364 and N-terminal hexahistidine tag; hexahistidine (His6) (N); made in house; host or cells: E. coli BL21 (DE3)
# Assay: Coupled spectrophotometric (PK/LDH) JNK1α1 assay: % inhibition and Ki determination
# Type: biochemical
# Conditions: @1 uM; read-out: % Inhibition JNK-1
# Method in brief: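 Initial rates were taken from the absorbance decrease at 340 nm at 30° C. Ki was fitted with a tight-binding model over 11 concentrations (top 100 μM); single-point inhibition was tested at 1 or 10 μM.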
# T1 sequence (P45983 1-364): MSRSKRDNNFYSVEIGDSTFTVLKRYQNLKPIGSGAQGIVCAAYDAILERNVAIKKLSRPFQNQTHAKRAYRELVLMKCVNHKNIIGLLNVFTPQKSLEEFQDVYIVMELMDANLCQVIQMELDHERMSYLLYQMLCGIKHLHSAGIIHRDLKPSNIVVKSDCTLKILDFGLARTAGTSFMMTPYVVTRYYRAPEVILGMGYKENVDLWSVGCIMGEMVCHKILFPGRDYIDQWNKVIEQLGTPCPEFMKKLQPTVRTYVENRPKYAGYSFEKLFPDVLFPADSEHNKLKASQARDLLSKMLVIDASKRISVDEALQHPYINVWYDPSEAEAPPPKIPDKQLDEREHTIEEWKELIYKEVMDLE
row,Structure (SMILES),inhibition at 1 µM
1,"O=C(N[C@H]1CCN(C(=O)c2ccccc2)C1)c1cccc2cnc(N[C@H]3CC[C@H](O)CC3)nc12 [Example 517, N-(1-benzoylpyrrolidin-3-yl)-2-[(trans-4-hydroxycyclohexyl)amino]quinazoline-8-carboxamide]",16%
2,"CN1C(=O)OC[C@@H]1COc1ccc2cnc(N[C@H]3CC[C@H](O)CC3)nc2c1 [Example 289, 4-[({2-[(trans-4-hydroxycyclohexyl)amino]quinazolin-7-yl}oxy)methyl]-3-methyl-1,3-oxazolidin-2-one]",69%
3,"Cc1cc(CNC(=O)c2cccc3cnc(N[C@H]4CC[C@H](O)CC4)nc23)nn1C [Example 521, N-[(1,5-dimethyl-1H-pyrazol-3-yl)methyl]-2-[(trans-4-hydroxycyclohexyl)amino]quinazoline-8-carboxamide]",49%
4,"O[C@H]1CC[C@H](Nc2ncc3ccc(OC4CCN(c5cccnn5)CC4)cc3n2)CC1 [Example 293, trans-4-({7-[(1-pyridazin 3-ylpiperidin-4-yl)oxy]quinazolin-2-yl}amino)cyclohexanol]",52%
5,"O=C1CC[C@H](COc2ccc3cnc(N[C@H]4CC[C@H](O)CC4)nc3c2)N1 [Example 284, (5R)-5-[({2-[(trans-4-hydroxycyclohexyl)amino]quinazolin-7-yl}oxy)methyl]pyrrolidin-2-one]",53%
6,"O=C1CC[C@@H](COc2ccc3cnc(N[C@H]4CC[C@H](O)CC4)nc3c2)N1 [Example 280, (5S)-5-[({2-[(trans-4-hydroxycyclohexyl)amino]quinazolin-7-yl}oxy)methyl]pyrrolidin-2-one]",37%
7,"CN(C)c1ncccc1NC(=O)c1cccc2cnc(N[C@H]3CC[C@H](O)CC3)nc12 [Example 319, N-[2-(dimethylamino)pyridin-3-yl]-2-[(trans-4-hydroxycyclohexyl)amino]quinazoline-8-carboxamide]",27%
8,"CN1CCC[C@H]1COc1ccc2cnc(N[C@H]3CC[C@H](O)CC3)nc2c1 [Example 273, trans-4-[(7-{[(2S)-1-methylpyrrolidin-2-yl]methoxy}quinazolin-2-yl)amino]cyclohexanol]",24%
9,"O=C(NCCn1ccccc1=O)c1cccc2cnc(N[C@H]3CC[C@H](O)CC3)nc12 [Example 528, 2-[(trans-4-hydroxycyclohexyl)amino]-N-[2-(2-oxopyridin-1(2H)-yl)ethyl]quinazoline-8-carboxamide]",26%
10,"O=C(N[C@@H]1COC[C@H]1O)c1ccc2cnc(NC3CCCC3)nc2c1 [Example 435, 2-(cyclopentylamino)-N-[(3R,4S)-4-hydroxytetrahydrofuran-3-yl]quinazoline-7-carboxamide]",22%
11,"O=C(NCc1nncn1C1CCCCC1)c1cccc2cnc(N[C@H]3CC[C@H](O)CC3)nc12 [Example 497, N-[(4-cyclohexyl-4H-1,2,4-triazol-3-yl)methyl]-2-[(trans-4-hydroxycyclohexyl)amino]quinazoline-8-carboxamide]",13%

# Same assay, conditions: @10 uM; read-out: % Inhibition JNK-1
row,Structure (SMILES),inhibition at 10 µM
1,"Cc1nnc(C(C)NC(=O)c2cccc3cnc(N[C@H]4CC[C@H](O)CC4)nc23)[nH]1 (stereo partly drawn) [Example 510, 2-[(trans-4-hydroxycyclohexyl)amino]-N-[1-(5-methyl-4H-1,2,4-triazol-3-yl)ethyl]quinazoline-8-carboxamide]",25%
2,"CC(=O)N1CCC(CNC(=O)c2cccc3cnc(N[C@H]4CC[C@H](O)CC4)nc23)CC1 [Example 505, N-[(1-acetylpiperidin-4-yl)methyl]-2-[(trans-4-hydroxycyclohexyl)amino]quinazoline-8-carboxamide]",58%
3,"CN1CCC[C@H]1COc1cccc2cnc(N[C@H]3CC[C@H](O)CC3)nc12 [Example 257, trans-4-[(8-{[(2S)-1-methylpyrrolidin-2-yl]methoxy}quinazolin-2-yl)amino]cyclohexanol]",62%
4,"c1cc(CNc2cc3cc(-c4cn[nH]c4)ccc3cn2)[nH]n1 [Example 229, 6-(1H-pyrazol-4-yl)-N-(1H-pyrazol-5-ylmethyl)isoquinolin-3-amine]",17%

# Same assay, conditions: JNK-1
row,Structure (SMILES),Ki
1,"COCCC(=O)Nc1cc2cc(-c3cn[nH]c3)ccc2cn1 [Example 27, 3-methoxy-N-[6-(1H-pyrazol-4-yl)isoquinolin-3-yl]propanamide]",4 nM
2,"CN([C@H]1CC[C@H](Nc2ncc3cccc(C(=O)N[C@@H]4CCC[C@H]4O)c3n2)CC1)S(C)(=O)=O (relative stereo) [Example 142, N-[(trans)-2-hydroxycyclopentyl]-2-({trans-4-[methyl(methylsulfonyl)amino]cyclohexyl}amino)quinazoline-8-carboxamide]",226 nM
3,"CC(C)NC(=O)c1cccc2cnc(N[C@H]3CC[C@H](O)CC3)nc12 [Example 103, 2-[(trans-4-hydroxycyclohexyl)amino]-N-isopropylquinazoline-8-carboxamide]",176 nM
4,"Cc1cc(C(=O)NCC(=O)Nc2cc3cc(-c4cn[nH]c4)ccc3cn2)no1 [Example 19, 5-methyl-N-(2-oxo-2-{[6-(1H-pyrazol-4-yl)isoquinolin-3-yl]amino}ethyl)isoxazole-3-carboxamide]",13 nM
5,"Cc1oc(-c2ccccc2)nc1CC(=O)Nc1cc2cc(-c3cn[nH]c3)ccc2cn1 [Example 51, 2-(5-methyl-2-phenyl-1,3-oxazal-4-yl)-N-[6-(1H-pyrazol-4-yl)isoquinolin-3-yl]acetamide]",8 nM
6,"CC(=O)NC1CCC(Nc2cc3cc(-c4cn[nH]c4)ccc3cn2)CC1 (stereo not drawn) [Example 217, N-(4-{[6-(1H-pyrazol-4-yl)isoquinolin-3-yl]amino}cyclohexyl)acetamide]",775 nM
7,"Cc1ccc2cnc(N[C@H]3CC[C@H](O)CC3)nc2c1OCC(=O)NC1CCOCC1 [Example 210, 2-({2-[(trans-4-hydroxycyclohexyl)amino]-7-methylquinazolin-8-yl}oxy)-N-(tetrahydro-2H-pyran-4-yl)acetamide]",1710 nM
8,"COc1ccccc1-c1cccc2cnc(N[C@H]3CC[C@H](O)CC3)nc12 [Example 204, trans-4-{(8-(2-methoxyphenyl)quinazolin-2-yl]amino} cyclohexanol]",303 nM
9,"CCC[C@@H](CO)NC(=O)c1ccc2cnc(N[C@H]3CC[C@H](O)CC3)nc2c1 [Example 377, 2-[(trans-4-hydroxycyclohexyl)amino]-N-[(1S)-1-(hydroxymethyl)butyl]quinazoline-7-carboxamide]",147 nM
10,"CCCNC(=O)c1cccc2cnc(N[C@H]3CC[C@H](O)CC3)nc12 [Example 461, 2-[(trans-4-hydroxycyclohexyl)amino]-N-propylquinazoline-8-carboxamide]",451 nM
11,"O=C(CCc1cncnc1)Nc1cc2cc(-c3cn[nH]c3)ccc2cn1 [Example 29, N-[6-(1H-pyrazol-4-yl)isoquinolin-3-yl]-3-pyrimidin-5-ylpropanamide]",22 nM
12,"COc1ccc2c(c1OC)CC[C@@H]2C(=O)Nc1cc2cc(-c3cn[nH]c3)ccc2cn1 [Example 22, (S)-4,5-dimethoxy-N-[6-(1H-pyrazol-4-yl)isoquinolin-3-yl]indane-1-carboxamide]",> 50 nM
13,"CC(C)CC(=O)Nc1cc2cc(-c3cn[nH]c3)ccc2cn1 [Example 11, 3-methyl-N-[6-(1H-pyrazol-4-yl)isoquinolin-3-yl]butanamide]",26 nM
14,"CNCCOc1ccc(-c2cccc3cnc(N[C@H]4CC[C@H](O)CC4)nc23)cc1 [Example 199, trans-4-[(8-{4-[2-(methylamino)ethoxy]phenyl}quinazolin-2-yl)amino]cyclohexanol]",98 nM
15,"Cc1ccccc1-c1cccc2cnc(N[C@H]3CC[C@H](O)CC3)nc12 [Example 200, trans-4-{[8-(2-methylphenyl)quinazolin-2-yl]amino} cyclohexanol]",186 nM
16,"CS(=O)(=O)N[C@H]1CC[C@H](Nc2ncc3cccc(OC4CCOCC4)c3n2)CC1 [Example 182, N-(trans-4-{[8-(tetrahydro-2H-pyran-4-yloxy)quinazolin-2-yl]amino}cyclohexyl)methanesulfonamide]",146 nM
17,"CC[C@H](C)[C@@H](CO)NC(=O)c1ccc2cnc(NC3CCC3)nc2c1 [Example 414, 2-(cyclobutylamino)-N-[(1S,2S)-1-(hydroxymethyl)-2-methylbutyl]quinazoline-7-carboxamide]",1310 nM
18,"CC(C)C[C@@H](CO)NC(=O)c1ccc2cnc(NC3CCCC3)nc2c1 [Example 390, 2-(cyclopentylamino)-N-[(1S)-1-(hydroxymethyl)-3-methylbutyl]quinazoline-7-carboxamide]",333 nM
19,"O=C(NC1(CO)CCCC1)c1ccc2cnc(NC3CCCCC3)nc2c1 [Example 401, 2-(cyclohexylamino)-N-[1-(hydroxymethyl)cyclopentyl]quinazoline-7-carboxamide]",490 nM
20,"O[C@H]1CC[C@H](Nc2ncc3cccc(OCCc4cn[nH]c4)c3n2)CC1 [Example 245, trans-4-({8-[2-(1H-pyrazol-4-yl)ethoxy]quinazolin-2-yl}amino)cyclohexanol]",239 nM
21,"Cn1ncc(NC(=O)c2ccc3cnc(N[C@H]4CC[C@H](O)CC4)nc3c2)n1 [Example 358, 2-[(trans-4-hydroxycyclohexyl)amino]-N-(2-methyl-2H-1,2,3-triazol-4-yl)quinazoline-7-carboxamide]",1700 nM
22,"O=C(c1cccc2cnc(N[C@H]3CC[C@H](O)CC3)nc12)N1CCC(O)C1 (stereo partly drawn) [Example 112, 1-({2-[(trans-4-hydroxycyclohexyl)amino]quinazolin-8-yl}carbonyl)pyrrolidin-3-ol]",> 10000 nM
23,"c1cc2cnc(NC3CCOCC3)nc2cc1O[C@H]1CCOC1 [Example 163, 7-[(3S)-tetrahydrofuran-3-yloxy]-N-(tetrahydro-2H-pyran-4-yl)quinazolin-2-amine]",1740 nM
24,"O=C(N[C@H](CO)Cc1c[nH]cn1)c1ccc2cnc(N[C@H]3CC[C@H](O)CC3)nc2c1 [Example 417, 2-[(trans-4-hydroxycyclohexyl)amino]-N-[(1S)-2-hydroxy-1-(1H-imidazol-4-ylmethyl)ethyl]quinazoline-7-carboxamide]",1680 nM
